# Test results: patent US8198285B2, “Pyrazine derivatives” (Astrazeneca AB, priority 2010, dated 2012)
# Counter-ions that a name gives are not always drawn.
# Columns and labels:
# [1] = target: PIM3 (Homo sapiens, UniProt Q86V86); assay: Inhibitory activity against PIM3; type: biochemical
# [2] = test system: N-terminal propeptide of type I procollagen (P1NP); assay: Bone biomarker evaluation: serum P1NP assay; type: in vivo, rat; conditions: oral once a day, 7 consecutive days, female CRL:CD rats
# Experimental: (§1) For in vitro osteogenesis, human adipose-derived stem cells (hADSC) (Invitrogen, UK; catalogue number R7788-115) were seeded into 12-well plates at a density of 5000 cells/cm^2 and were cultured in a basal media of phenol red-free Dulbecco's Modified Eagles Medium (DMEM; Sigma-Aldrich, UK; catalogue number D1145) supplemented with 5% fetal bovine serum (FBS, Gibco, UK; catalogue number 10270) and 2 mM GlutaMax® (Gibco; catalogue number 35050). […] The formation of mineralized bone nodules was assessed during the time-course using Alizarin Red S staining. […] The amount of mineralisation was quantified through the extraction of the Alizarin Red S stain from bone nodules using a cetylpyridinium chloride extraction method, previously described (Gregory et al., Analytical Biochemistry, 2004, 329: 77-84; Hwang et al., Stem Cells and Development 17: 963-970, 2008). […] Following incubation, 200 μl aliquots were transferred to 96-well format and the absorbance at 550 nm was determined using a microplate spectrophotometer (SpectraMax Plus, Molecular Devices, USA). Data were expressed as mean absorbance at 550 nm±Standard error of mean (SEM). […] Data are shown as mean absorbance at 550 nm and analysed using one-way ANOVA followed by Tukey's multiple comparison post hoc test: n=9; ***, P<0.001. […]
# [3] = test system: female CRL:CD rats; assay: Bone densitometry (pQCT) of right femur in rats; type: in vivo, rat; conditions: oral once a day, 14 consecutive days, 15 mg/kg
# Experimental: as §1
compound,measurement,setting,value
"COCCCNCCCc1ccc(-c2cnc(N)c(C(=O)Nc3cccnc3)n2)cc1 [Example 1, 3-Amino-6-(4-{3-[(3-methoxypropyl)amino]propyl}phenyl)-N-pyridin-3-ylpyrazine-2-carboxamide tri-hydrochloride]",Inhibitory activity against PIM3,[1],inhibitory activity
same,Serum P1NP levels (marker of bone formation),[2],increase in serum P1NP levels
same,Increase in right femur metaphysis total BMD compared with vehicle treated rats,[3],6.6%
same,Total BMD in femur (mean±SEM),[3],814.41 ± 15 mg/mL
